Source: US20080188530A1 (priority 2004, published 2008)
Read-outs that look alike come from different tables or passages of the source.

Assays:
[1] = system: Pyrenophora [syn. Drechslera] teres; assay: Activity against net blotch of barley caused by Pyrenophora teres (protective spray on potted barley seedlings); format: in vivo; settings: barley cv. Igri, inoculated 5 days after spraying, rated after 6 days, efficacy in % of untreated control (Abbot)
Phytophthora infestans = format: in vivo; settings: tomato plants, infected 5 days after spraying, rated after 6 days, efficacy in % of untreated control (Abbot)

| SMILES | Observed efficacy (%) ([1]; 16 ppm) | Observed efficacy (%) (Phytophthora infestans; 16 ppm) | Observed efficacy (%) ([1]; 63 ppm) | Observed efficacy (%) (Phytophthora infestans; 63 ppm) |
| --- | --- | --- | --- | --- |
| COCC(=O)N(c1c(C)cccc1C)C(C)C(=O)OC (racemic) [metalaxyl, methyl N-(methoxyacetyl)-N-(2,6-xylyl)-DL-alaninate] | 0% |  |  |  |
| O=C(Nc1ccccc1-c1ccc(Cl)cc1)c1cccnc1Cl [boscalid, 2-chloro-N-(4′-chlorobiphenyl-2-yl)nicotinamide] |  | 0% |  |  |
| CO/C=C(/C(=O)OC)c1ccccc1CO/N=C(C)/C=C/c1ccc(Cl)cc1 [enestroburin, methyl 2-{2-[3-(4-chlorophenyl)-1-methylallylideneaminooxymethyl]phenyl}-3-methoxyacrylate] | 44% | 0% | 56% | 11% |
